Test results reported in patent publication US20200140826A1, “Maintenance and Expansion of Pancreatic Progenitor Cells” (AGENCY FOR SCIENCE, TECHNOLOGY AND RESEARCH, priority 2017, published 2020).

Legend:
cPP cells [1] = test: Omission of individual components from complete cPP culture medium on 3T3-J2 feeders (phase contrast, qRT-PCR); assay type: cell-based, human; conditions: for Effect of removing the component on cPP expansion, colony size and morphology: component individually omitted from complete medium, cPP cells cultured 6 days on 3T3-J2 feeders
Experimental: Gentle cell dissociation reagent (STEMCELL Technologies, 07174) was used to passage cPP cells as aggregates that were then seeded at a 1:6 split ratio onto a layer of 3T3-J2 feeders (0.5×10^6 to 1×10^6 cells/cm^2) in medium composed of advanced DMEM/F12 (Thermo Fisher Scientific, 21634010), 2 mM L-glutamine (Thermo Fisher Scientific, 25030), 100 U/mL penicillin/streptomycin (Thermo Fisher Scientific, 15140122), 1× N2 supplement (Thermo Fisher Scientific, 17502-048), 1× B27 supplement (Thermo Fisher Scientific, 17504-044), 30 nM dexamethasone (STEMCELL Technologies, 72092), 50 ng/mL EGF (R&D Systems, 236-EG-200), 50 ng/mL FGF10 (Source Bioscience, ABC144), 3 μM RA (Sigma, R2625), 10 μM SB431542 (Calbiochem, 616464), and 1 μM DAPT (Sigma, D5942). If plating single cPP cells, complete medium was supplemented with 10 μM Y27632 for the first 48 hr (Sigma, Y0503). Medium was completely replenished every 2-3 days.
RNA was isolated from samples using an RNeasy mini kit (Qiagen, cat # 74104) and reverse transcribed to generate cDNA using a high-capacity reverse transcription kit and random hexamer primers (Applied Biosystems, 4368814,1 μg RNA per 20 μL reaction). Quantitative RT-PCR was carried out using SYBR Select Mastermix (Applied Biosystems, 4472908). Data were analyzed using the ΔΔCT method, and normalized to expression of the housekeeping gene TBP in each sample.
To establish the roles played by the growth factors and small molecules in our culture media, each was removed individually and the effect on differentiation and proliferation was assessed.

cPP cells [2] = test: Microbioreactor array (MBA) screening of cPP maintenance and proliferation; assay type: cell-based, human; conditions: relatively low concentration (1 μM) in cPP culture medium
Experimental: Microbioreactor arrays were used to screen the effects of combinations of exogenous signaling molecules on cPP cells. MBAs provide combinatorial mixing of input factors, combined with continuous flow of culture media over culture chambers. MBAs were autoclaved and filled with sterile PBS, then coated (2-4 h, room temperature) with a single 1 mL injection of hESC-qualified matrigel at the manufacturer's recommended concentration. cPP cells in suspension in complete medium at 5×10^6/mL were then seeded in the MBA, giving a surface density of 50×10^6cells/cm^2. Cells were allowed to attach for a total of 20 h, with a media exchange performed every 6 h. […] Nuclear segmentation and quantification of nuclear intensities of PDX1 and SOX9 then proceeded similarly as previously described.
To quantify the effect of exogenous signaling molecules on the maintenance and expansion of cPP cells, this study used a microbioreactor array (MBA) screening platform to measure differentiation and proliferation. […] The study then used an image-segmentation algorithm to identify individual nuclei and quantify immunofluorescence staining for PDX1 and SOX9, thereby enabling the determination of the percentage of double-positive cells following exposure to different growth factor regimes. […]

Row | Compound | Effect of removing the component on cPP expansion, colony size and morphology (cPP cells [1]) | Effect of removing the component on viability (cPP cells [1]; component removed from the culture media over multiple passages) | Effect on proliferation of cPP cells (cPP cells [2])
1 | EGF: epidermal growth factor, growth factor in the cPP culture medium (50 ng/mL) (NSDSECPLSHDGYCLHDGVCMYIEALDKYACNCVVGYIGERCQYRDLKWWELR; Epidermal growth factor; UniProt P01133 971-1023, looked up) | prevented cPP expansion | – | –
2 | C[C@H](NC(=O)Cc1cc(F)cc(F)c1)C(=O)N[C@H](C(=O)OC(C)(C)C)c1ccccc1 [DAPT] | did not significantly affect colony size or morphology in the short term | noticeable loss of viability | promotes proliferation of cPP cells
3 | NC(=O)c1ccc(-c2nc(-c3ccc4c(c3)OCO4)c(-c3ccccn3)[nH]2)cc1 [SB431542] | caused colonies to detach from the feeder layer | – | –
